`C#CC(C)(C)NC(=O)c1cc(Cl)cc(Cl)c1` gave a solubility (mole fraction) (in cyclohexane, 283.15 K) of 0.000135, a solubility (mole fraction) (in cyclohexane, 288.15 K) of 0.000185 and a solubility (mole fraction) (in cyclohexane, 293.15 K) of 0.000293. It also gave a solubility (mole fraction) (in cyclohexane, 298.15 K) of 0.000425, a solubility (mole fraction) (in cyclohexane, 303.15 K) of 0.000544 and a solubility (mole fraction) (in cyclohexane, 308.15 K) of 0.000704. The solubility (mole fraction) (in cyclohexane, 313.15 K) was 0.00081, the solubility (mole fraction) (in cyclohexane, 318.15 K) was 0.00101 and the solubility (mole fraction) (in cyclohexane, 323.15 K) was 0.00124. The solubility (mole fraction) (in ethanol, 278.15 K) was 0.0071, the solubility (mole fraction) (in ethanol, 283.15 K) was 0.00834 and the solubility (mole fraction) (in ethanol, 288.15 K) was 0.00953. It also gave a solubility (mole fraction) (in ethanol, 293.15 K) of 0.011, a solubility (mole fraction) (in ethanol, 298.15 K) of 0.0131 and a solubility (mole fraction) (in ethanol, 303.15 K) of 0.0151. It also gave a solubility (mole fraction) (in ethanol, 308.15 K) of 0.0174, a solubility (mole fraction) (in ethanol, 313.15 K) of 0.0205 and a solubility (mole fraction) (in ethanol, 318.15 K) of 0.0242. The solubility (mole fraction) (in ethanol, 323.15 K) was 0.0295, the solubility (mole fraction) (in isopropanol, 278.15 K) was 0.00219 and the solubility (mole fraction) (in isopropanol, 283.15 K) was 0.00269. The solubility (mole fraction) (in isopropanol, 288.15 K) was 0.00351, the solubility (mole fraction) (in isopropanol, 293.15 K) was 0.00526 and the solubility (mole fraction) (in isopropanol, 298.15 K) was 0.00705. It also gave a solubility (mole fraction) (in isopropanol, 303.15 K) of 0.00865, a solubility (mole fraction) (in isopropanol, 308.15 K) of 0.0112 and a solubility (mole fraction) (in isopropanol, 313.15 K) of 0.0137. It also gave a solubility (mole fraction) (in isopropanol, 318.15 K) of 0.0171, a solubility (mole fraction) (in isopropanol, 323.15 K) of 0.023 and a solubility (mole fraction) (in methanol, 278.15 K) of 0.00654. For the same molecule, the solubility (mole fraction) (in methanol, 283.15 K) was 0.0077, the solubility (mole fraction) (in methanol, 288.15 K) was 0.00892 and the solubility (mole fraction) (in methanol, 293.15 K) was 0.0101. It also gave a solubility (mole fraction) (in methanol, 298.15 K) of 0.0124, a solubility (mole fraction) (in methanol, 303.15 K) of 0.0145 and a solubility (mole fraction) (in methanol, 308.15 K) of 0.017. For the same molecule, the solubility (mole fraction) (in methanol, 313.15 K) was 0.0201, the solubility (mole fraction) (in methanol, 318.15 K) was 0.0236 and the solubility (mole fraction) (in methanol, 323.15 K) was 0.0283. The solubility (mole fraction) (in toluene, 278.15 K) was 0.00179, the solubility (mole fraction) (in toluene, 283.15 K) was 0.00238 and the solubility (mole fraction) (in toluene, 288.15 K) was 0.00298. It also gave a solubility (mole fraction) (in toluene, 293.15 K) of 0.00368, a solubility (mole fraction) (in toluene, 298.15 K) of 0.00467 and a solubility (mole fraction) (in toluene, 303.15 K) of 0.00593. It also gave a solubility (mole fraction) (in toluene, 308.15 K) of 0.00735, a solubility (mole fraction) (in toluene, 313.15 K) of 0.00924 and a solubility (mole fraction) (in toluene, 318.15 K) of 0.0113. It also gave a solubility (mole fraction) (in toluene, 323.15 K) of 0.0124.
